Assay results as given in patent publication US11370785B2, “Multicyclic compounds as farnesoid X receptor modulators” (BRISTOL-MYERS SQUIBB COMPANY, priority 2017, dated 2022).
pEC50: −log10 of the molar value.

Molecular target: T1, human FXR (Homo sapiens, UniProt Q96RI1)
T1 construct: expressed in transfected cells; host or cells: HEK293 cells stably carrying a 5xGal4-response-element firefly luciferase reporter, transiently transfected with the pcDNA3.1-Gal4-FXR plasmid
T1 sequence (Q96RI1 262-486 limits assumed): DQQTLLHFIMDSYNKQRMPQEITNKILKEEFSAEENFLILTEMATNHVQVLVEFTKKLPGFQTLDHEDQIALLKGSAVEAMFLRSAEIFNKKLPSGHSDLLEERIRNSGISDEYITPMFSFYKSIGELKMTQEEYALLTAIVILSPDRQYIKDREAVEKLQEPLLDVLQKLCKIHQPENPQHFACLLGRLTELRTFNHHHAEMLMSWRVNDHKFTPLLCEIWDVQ
Experiment: transient human FXR/Gal4-luciferase reporter assay
Format: cell-based
Details: Gal4-hFXR reporter in HEK293 cells; read-out: HLE GAL-FXR EC50
How it was run: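 HEK293 cells stably carrying a 5×Gal4-response-element firefly luciferase reporter, transiently transfected with a CMV-driven Gal4 DNA-binding domain–human FXR ligand-binding domain fusion, were treated overnight at 37 °C with serially diluted compounds. Luminescence was read by Steady-Glo; DMSO background was subtracted and signal expressed as percent of the 8 μM GW-4064 response.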

pEC50	SMILES
5.36	Clc1cccc(Cl)c1-c1noc(C2CC2)c1C=C1CC2(CCN(c3ccc(-c4nn[nH]n4)cc3)CC2)C1 [Example 50, 4-((7-(4-(2H-tetrazol-5-yl)phenyl)-7-azaspiro[3.5]nonan-2-ylidene)methyl)-5-cyclopropyl-3-(2,6-dichlorophenyl)isoxazole]
6.49	Cc1cccc(Cl)c1-c1noc(C2CC2)c1C=C1CC2(CCN(S(=O)(=O)c3ccc(C(=O)O)cc3)CC2)C1 [Example 10, 4-((2-((3-(2-Chloro-6-methylphenyl)-5-cyclopropylisoxazol-4-yl)methylene)-7-azaspiro[3.5]nonan-7-yl)sulfonyl)benzoic acid]

Second part, the compound before the results:

SMILES	pEC50
O=C(O)c1cc(F)c2nc(N3CCC4(CC3)CC(=Cc3c(C5CC5)cnn3-c3c(Cl)cccc3Cl)C4)sc2c1 [Example 7, 2-(2-((4-Cyclopropyl-1-(2,6-dichlorophenyl)-1H-pyrazol-5-yl)methylene)-7-azaspiro[3.5]nonan-7-yl)-4-fluorobenzo[d]thiazole-6-carboxylic acid]	6.70
O=C(O)c1cc(F)c2nc(N3CCC4(CC3)CC(=Cc3c(C5CC5)nnn3-c3c(Cl)cccc3Cl)C4)sc2c1 [Example 6, 2-(2-((4-Cyclopropyl-1-(2,6-dichlorophenyl)-1H-1,2,3-triazol-5-yl)methylene)-7-azaspiro[3.5]nonan-7-yl)-4-fluorobenzo[d]thiazole-6-carboxylic acid]	6.40
O=C(NS(=O)(=O)C1CC1)c1cc(C(F)(F)F)c2cc(N3CCC4(CC3)CC(Cc3c(-c5ccccc5C(F)(F)F)noc3C3CC3)C4)ccc2n1 [Example 82, 6-(2-((5-Cyclopropyl-3-(2-(trifluoromethyl)phenyl)isoxazol-4-yl)methyl)-7-azaspiro[3.5]nonan-7-yl)-N-(cyclopropylsulfonyl)-4-(trifluoromethyl)quinoline-2-carboxamide]	7.96
O=C(O)c1cc(F)c2nc(N3CCC4(CC3)CC(=Cc3c(-c5c(Cl)cccc5Cl)cnn3C3CC3)C4)sc2c1 [Example 8, 2-(2-((1-Cyclopropyl-4-(2,6-dichlorophenyl)-1H-pyrazol-5-yl)methylene)-7-azaspiro[3.5]nonan-7-yl)-4-fluorobenzo[d]thiazole-6-carboxylic acid]	6.37

Same assay, conditions: Gal4-hFXR reporter in HEK293 cells; relative to 8 μM GW-4064; read-out: FXR EC50

pEC50	SMILES
7.89	O=C(O)c1cc(C(F)(F)F)c2cc(N3CCC4(CC3)CC(Cc3c(-c5c(Cl)cccc5Cl)noc3C3CC3)C4)ccc2n1 [Example 41]
6.84	Cc1cccc(Cl)c1-c1noc(C2CC2)c1C=C1CC2(CCN(c3nc4c(F)cc(C(=O)O)cc4s3)CC2)C1 [Example 60]
7.64	O=C(O)c1cc(C(F)(F)F)c2cc(N3CCC4(CC3)CC(=Cc3c(-c5ccccc5OC(F)(F)F)noc3C3CC3)C4)ccc2n1 [Example 25]
7.17	O=C(O)c1cc(F)c2nc(N3CCC4(CC3)CC(=Cc3c(-c5c(Cl)cccc5Cl)noc3C(F)(F)F)C4)sc2c1 [Example 126]
6.04	Cn1nnc(-c2ccc(N3CCC4(CC3)CC(=Cc3c(-c5c(Cl)cccc5Cl)noc3C3CC3)C4)cc2)n1 [Example 53]
7.14	O=C(O)c1cc(F)c2nc(N3CCC4(CC(=Cc5c(-c6c(Cl)cccc6Cl)noc5C5CC5)C4)C3)sc2c1 (stereo not drawn) [Example 131]
5.81	O=C(O)c1cccc(N2CCC3(CC2)CC(Nc2c(-c4c(Cl)cccc4Cl)noc2C2CC2)C3)n1 [Example 14]
8.52	O=C(O)c1cc(OC(F)F)c2cc(N3CCC4(CC3)CC(=Cc3c(-c5c(Cl)cncc5Cl)noc3C3CC3)C4)ccc2n1 [Example 81]
6.43	O=C(O)c1cccc(N2CCC3(CC2)CC(=Cc2c(-c4c(Cl)cccc4Cl)noc2C2CC2)C3)c1 [Example 64]
6.64	Cn1cc(C(=O)O)c2ccc(N3CCC4(CC3)CC(=Cc3c(-c5ccccc5OC(F)(F)F)noc3C3CC3)C4)nc21 [Example 28]
7.68	Cn1cc(C(=O)O)c2ccc(N3CCC4(CC3)CC(=Cc3c(-c5ccccc5OC(F)(F)F)noc3C3CC3)C4)cc21 [Example 27]
8.40	Cn1cc(C(=O)O)c2ccc(N3CCC4(CC3)CC(=Cc3c(-c5ccccc5C(F)(F)F)noc3C3CC3)C4)cc21 [Example 39]
6.30	COc1cc(N2CCC3(CC2)CC(Cc2c(-c4c(Cl)cccc4Cl)noc2C2CC2)C3)ccc1OCC(=O)O [Example 93]
7.74	CCOc1cc(C(=O)O)nc2ccc(N3CCC4(CC3)CC(=Cc3c(-c5ccccc5C(F)(F)F)noc3C3CC3)C4)cc12 [Example 100]
5.66	O=C(O)c1cccc(N2CCC3(CC2)CC(Cc2c(-c4c(Cl)cccc4Cl)noc2C2CC2)C3)n1 [Example 12]
6.35	O=C(O)c1cc(OCCO)c2cc(N3CCC4(CC3)CC(=Cc3c(-c5ccccc5C(F)(F)F)noc3C3CC3)C4)ccc2n1 [Example 92]
8.52	CC(C)Oc1cc(C(=O)O)nc2ccc(N3CCC4(CC3)CC(=Cc3c(-c5c(Cl)cncc5Cl)noc3C3CC3)C4)cc12 [Example 85]
7.85	O=C(O)c1cc(OC2CCC2)c2cc(N3CCC4(CC3)CC(=Cc3c(-c5c(Cl)cncc5Cl)noc3C3CC3)C4)ccc2n1 [Example 124]
6.10	CCc1cc(N2CCC3(CC2)CC(Cc2c(-c4c(Cl)cccc4Cl)noc2C2CC2)C3)ccc1OCC(=O)O [Example 96]
7.72	O=C(O)c1cc(C(F)(F)F)c2cc(N3CCC4(CC3)CC(=Cc3c(-c5ccncc5C(F)(F)F)noc3C3CC3)C4)ccc2n1 [Example 128]
8.22	O=C(O)c1nc(C(F)(F)F)n2cc(N3CCC4(CC3)CC(=Cc3c(-c5ccccc5C(F)(F)F)noc3C3CC3)C4)ccc12 [Example 33]
6.90	Cc1cccc(Cl)c1-c1noc(C2CC2)c1C=C1CC2(CCN(c3ccc4cc(C(=O)O)ccc4c3)CC2)C1 [Example 55]
7.42	COCCOc1cc(C(=O)O)nc2ccc(N3CCC4(CC3)CC(=Cc3c(-c5ccccc5C(F)(F)F)noc3C3CC3)C4)cc12 [Example 98]
7.74	O=C(O)c1cc(C(F)(F)F)c2cc(N3CCC4(CC3)CC(=Cc3c(-c5c(Cl)cncc5Cl)noc3C3CC3)C4)ccc2n1 [Example 73]
7.68	COc1cc(C(=O)O)nc2ccc(N3CCC4(CC3)CC(=Cc3c(-c5ccccc5C(F)(F)F)noc3C3CC3)C4)cc12 [Example 72]
6.16	O=C(O)c1ccc(N2CCC3(CC2)CC(=Cc2c(-c4c(Cl)cccc4Cl)noc2C2CC2)C3)cc1 [Example 66]
6.57	O=C(O)c1cc2ccc(N3CCC4(CC3)CC(=Cc3c(-c5c(Cl)cccc5Cl)noc3C3CC3)C4)cc2nn1 [Example 54]

More lines, now with the values behind:

SMILES	pEC50
O=C(c1cc(OC2CCC2)c2cc(N3CCC4(CC3)CC(Cc3c(-c5ccccc5C(F)(F)F)noc3C3CC3)C4)ccc2n1)N1CCC1 [Example 187]	6.37
O=C(c1cc(OC2CCC2)c2cc(N3CCC4(CC3)CC(Cc3c(-c5ccccc5C(F)(F)F)noc3C3CC3)C4)ccc2n1)N1CCC(O)CC1 [Example 190]	7.96
O=C(O)c1cc(F)c2nc(N3CCC4(CC3)CC(Cc3c(-c5ccccc5OC(F)(F)F)noc3C3CC3)C4)sc2c1 [Example 91]	6.39
O=C(O)c1cc(F)c2nc(N3CCC4(CC3)CC(=Cc3c(-c5c(Cl)cncc5Cl)noc3C(F)(F)F)C4)sc2c1 [Example 150]	6.96
COc1cc2nc(N3CCC4(CC3)CC(Cc3c(-c5ccccc5C(F)(F)F)noc3C3CC3)C4)sc2cc1C(=O)O [Example 105]	6.64
O=C(O)c1cc(OC2COC2)c2cc(N3CCC4(CC3)CC(Cc3c(-c5ccccc5C(F)(F)F)noc3C3CC3)C4)ccc2n1 [Example 138]	7.64
O=C(O)c1cc(F)c2nc(N3CCC4(CC3)CC(Cc3c(-c5c(Cl)cccc5Cl)noc3C3CC3)C4)sc2c1 [Example 11]	7.36
COc1ccc(C(=O)O)c2ccc(N3CCC4(CC3)CC(Cc3c(-c5ccccc5C(F)(F)F)noc3C3CC3)C4)nc12 [Example 118]	6.72
O=C(O)c1cc(F)c2nc(N3CCC4(CC3)CC(=Cc3c(-c5ccccc5OC(F)(F)F)noc3C3CC3)C4)sc2c1 [Example 26]	6.45
CN(C)C(=O)c1cc(C(F)(F)F)c2cc(N3CCC4(CC3)CC(Cc3c(-c5ccccc5C(F)(F)F)noc3C3CC3)C4)ccc2n1 [Example 178]	6.81
COCc1onc(-c2c(Cl)cncc2Cl)c1C=C1CC2(CCN(c3ccc4nc(C(=O)O)cc(C(F)(F)F)c4c3)CC2)C1 [Example 158]	7.48
O=C(O)c1cc(F)c2nc(N3CCC4(CC3)CC(Nc3c(-c5ccccc5OC(F)(F)F)noc3C3CC3)C4)sc2c1 [Example 18]	7.11
Cn1cc(C(=O)O)c2ccc(N3CCC4(CC3)CC(Cc3c(-c5ccccc5C(F)(F)F)noc3C3CC3)C4)cc21 [Example 38]	7.55
CC(C)Oc1cc(C(=O)O)nc2ccc(N3CCC4(CC3)CC(Cc3c(-c5ccccc5C(F)(F)F)noc3C3CC3)C4)cc12 [Example 84]	7.72
O=C(O)c1cc(OC2CCC2)c2cc(N3CCC4(CC3)CC(Cc3c(-c5ccccc5OC(F)(F)F)noc3C3CC3)C4)ccc2n1 [Example 116]	7.85
O=C(O)c1ncc(N2CCC3(CC2)CC(=Cc2c(-c4ccccc4C(F)(F)F)noc2C2CC2)C3)cc1C(F)(F)F [Example 157]	5.61
O=C(O)c1cc(OC2CCC2)c2cc(N3CCC4(CC3)CC(=Cc3c(-c5ccccc5OC(F)(F)F)noc3C3CC3)C4)ccc2n1 [Example 115]	7.19
O=C(O)c1cc(C(F)(F)F)c2cc(N3CCC4(CC3)CC(=Cc3c(-c5ccccc5C(F)(F)F)noc3C(F)(F)F)C4)ccc2n1 [Example 167]	7.33
